Data taken from ChEMBL document CHEMBL4715789, “Identification of a Potential Antimalarial Drug Candidate from a Series of 2-Aminopyrazines by Optimization of Aqueous Solubility and Potency across the Parasite Life Cycle” (J Med Chem, 2016).
Converted amounts (≈) assume the structure as drawn.

Key:
Plasmodium falciparum [1] = test: microbe, parasite or virus in culture; conditions: NF54, Erythrocyte
Description: Antiplasmodial activity against multidrug-sensitive Plasmodium falciparum NF54 infected in human erythrocytes assessed as reduction in [3H]hypoxanthine incorporation preincubated for 48 hrs followed by [3H]hypoxanthine addition and measured after 24 hrs by liquid scintillation counting method

Plasmodium falciparum [2] = test: microbe, parasite or virus in culture; conditions: K1, Erythrocyte
Description: Antiplasmodial activity against multidrug-resistant Plasmodium falciparum K1 infected in erythrocytes assessed as reduction in [3H]hypoxanthine incorporation preincubated for 48 hrs followed by [3H]hypoxanthine addition and measured after 24 hrs by liquid scintillation counting method

Plasmodium berghei [3] = test: Antiplasmodial activity against Plasmodium berghei ANKA infected in NMRI mouse model assessed as mean survival days at 30 mg/kg, po qd for 4 consecutive days; type: functional; conditions: time 4 day
[4] = Metabolic stability in human liver microsomes assessed as compound remaining at 0.1 uM measured after 30 mins in presence of cofactor NADPH by LC-MS/MS analysis; type: ADME, Microsome; conditions: read-out: Stabilty
Plasmodium berghei [5] = test: Antiplasmodial activity against Plasmodium berghei ANKA infected in NMRI mouse assessed as reduction in parasitemia at 10 mg/kg, po qd for 4 consecutive days measured at day 7 post infection by flow cytometry analysis; type: functional; parameters: scale not given: the % may be the effect or the level left; conditions: time 4 day
[6] = Volume of distribution in Sprague-dawley rat at 3 mg/kg, iv by LC-MS/MS analysis; type: ADME, organism-based; conditions: in vivo
[7] = Selectivity index, ratio of IC50 for cytotoxicity against CHO cells by MTT assay to IC50 for antiplasmodial activity against multidrug-sensitive Plasmodium falciparum NF54 infected in human erythrocytes; type: toxicity, cell-based; conditions: Chinese hamster, read-out: Ratio IC50
[8] = Metabolic stability in rat liver microsomes assessed as compound remaining at 0.1 uM measured after 30 mins in presence of cofactor NADPH by LC-MS/MS analysis; type: ADME, Microsome; conditions: read-out: Stabilty
Plasmodium falciparum [9] = test: Antiplasmodial activity against Plasmodium falciparum 3D70087/N9 infected in NOD-SCID IL2Rgamma null mouse assessed as reduction in parasitemia administered orally on day 3 to 6 post-infection and measured day 7 post infection by TER-119-PE and […] dye based flow cytometry; type: functional; conditions: 3D70087/N9, po, 120 h, time 5 day
[10] = Metabolic stability in mouse liver microsomes assessed as compound remaining at 0.1 uM measured after 30 mins in presence of cofactor NADPH by LC-MS/MS analysis; type: ADME, Microsome; conditions: read-out: Stabilty
Plasmodium falciparum [11] = test: Antimalarial activity against Plasmodium falciparum 3D70087/N9 infected in NOD-SCID IL2Rgamma null mouse assessed as blood AUC level require to show 90% reduction in parasitemia administered orally on day 3 to 6 post-infection and measured day 7 post infection; type: functional, organism-based; conditions: time 5.0 day
[12] = Half-life in Sprague-dawley rat at 3 mg/kg, iv by LC-MS/MS analysis; type: ADME, organism-based; conditions: in vivo
Plasmodium falciparum [13] = test: Antiplasmodial activity against early stage (II/III) Plasmodium falciparum NF54 gametocytes incubated for 48 hrs by luciferase reporter gene assay; type: functional, organism-based; conditions: NF54, 48 h
[14] = target: Voltage-gated inwardly rectifying potassium channel KCNH2 (Homo sapiens, UniProt Q12809); test: Inhibition of human ERG by IonWorks patch clamp electrophysiology method
Sequence of Voltage-gated inwardly rectifying potassium channel KCNH2 (Q12809 whole entry): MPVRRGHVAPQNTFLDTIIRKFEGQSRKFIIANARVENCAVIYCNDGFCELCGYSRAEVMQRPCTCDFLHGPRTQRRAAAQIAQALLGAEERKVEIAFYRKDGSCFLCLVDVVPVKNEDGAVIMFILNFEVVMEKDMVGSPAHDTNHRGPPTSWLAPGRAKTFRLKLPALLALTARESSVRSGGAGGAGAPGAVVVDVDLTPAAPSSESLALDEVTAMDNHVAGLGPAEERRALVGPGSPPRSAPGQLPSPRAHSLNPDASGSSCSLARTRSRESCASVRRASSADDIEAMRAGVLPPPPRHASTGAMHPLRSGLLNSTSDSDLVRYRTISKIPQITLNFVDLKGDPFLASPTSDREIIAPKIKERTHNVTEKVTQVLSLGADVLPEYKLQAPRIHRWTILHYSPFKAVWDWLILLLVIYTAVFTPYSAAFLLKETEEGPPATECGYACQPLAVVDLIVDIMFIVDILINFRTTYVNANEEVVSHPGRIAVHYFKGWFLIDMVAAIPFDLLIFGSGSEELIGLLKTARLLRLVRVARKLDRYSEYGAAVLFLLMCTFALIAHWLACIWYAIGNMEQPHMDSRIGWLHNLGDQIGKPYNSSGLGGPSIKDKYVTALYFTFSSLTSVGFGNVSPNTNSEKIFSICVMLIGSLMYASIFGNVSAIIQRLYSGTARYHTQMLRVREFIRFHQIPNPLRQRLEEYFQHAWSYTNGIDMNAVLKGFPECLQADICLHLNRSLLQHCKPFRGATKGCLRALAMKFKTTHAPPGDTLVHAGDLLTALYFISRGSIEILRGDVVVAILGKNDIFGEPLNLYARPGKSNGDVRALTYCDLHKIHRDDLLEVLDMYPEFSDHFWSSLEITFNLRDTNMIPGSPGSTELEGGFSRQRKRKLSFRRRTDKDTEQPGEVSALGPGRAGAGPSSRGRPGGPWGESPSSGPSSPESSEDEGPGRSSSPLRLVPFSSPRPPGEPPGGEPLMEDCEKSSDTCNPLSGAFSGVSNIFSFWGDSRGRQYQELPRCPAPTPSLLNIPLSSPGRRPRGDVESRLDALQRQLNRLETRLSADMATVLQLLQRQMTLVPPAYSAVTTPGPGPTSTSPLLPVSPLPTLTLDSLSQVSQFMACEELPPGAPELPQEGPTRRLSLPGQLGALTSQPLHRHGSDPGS

[15] = Aqueous solubility of compound in pH 6.5 PBS incubated for 2 hrs under shaking condition by shake-flask method based HPLC-DAD analysis; type: physicochemical
hERG (KCNH2) = test: Selectivity ratio of IC50 for inhibition of human ERG by IonWorks patch clamp electrophysiology method to IC50 for antiplasmodial activity against multidrug-sensitive Plasmodium falciparum NF54 infected in human erythrocytes; type: toxicity, cell-based; conditions: read-out: Ratio IC50
[16] = Aqueous solubility of compound in pH 2 0.01M HCl incubated for 2 hrs under shaking condition by shake-flask method based HPLC-DAD analysis; type: physicochemical
[17] = Half-life in Sprague-dawley rat at 10 mg/kg, po by LC-MS/MS analysis; type: ADME, organism-based; conditions: in vivo
[18] = Oral bioavailability in Sprague-dawley rat at 10 mg/kg by LC-MS/MS analysis; type: ADME, organism-based; conditions: in vivo
Plasmodium falciparum [19] = test: Antiplasmodial activity against late stage (IV/V) Plasmodium falciparum NF54 gametocytes incubated for 48 hrs by luciferase reporter gene assay; type: functional, organism-based; conditions: NF54, 48 h
Plasmodium berghei [20] = test: Antiplasmodial activity against Plasmodium berghei ANKA infected in NMRI mouse model assessed as mean survival days at 3 mg/kg, po qd for 4 consecutive day; type: functional; conditions: time 4 day
Plasmodium berghei [21] = test: Antiplasmodial activity against Plasmodium berghei ANKA infected in NMRI mouse model assessed as mean survival days at 10 mg/kg, po qd for 4 consecutive day; type: functional; conditions: time 4 day
[22] = Clearance in Sprague-dawley rat at 3 mg/kg, iv by LC-MS/MS analysis; type: ADME, organism-based; conditions: in vivo
Plasmodium berghei [23] = test: Antiplasmodial activity against luciferase expressing Plasmodium berghei sporozoites infected in human HepG2 cells preincubated with compound for 18 hrs followed by plasmodium infection measured after 48 hrs by bioluminescence assay; type: functional, organism-based
[24] = Half-life in Sprague-dawley rat at 20 mg/kg, po by LC-MS/MS analysis; type: ADME, organism-based; conditions: in vivo
[25] = Apparent average plasma concentration in NMRI mouse plasma infected with Plasmodium berghei ANKA at 3 mg/kg, po qd for 4 consecutive days and measured post last dose; type: ADME, organism-based; conditions: in vivo, 96 h, time 4 day
[26] = Oral bioavailability in Sprague-dawley rat at 20 mg/kg by LC-MS/MS analysis; type: ADME, organism-based; conditions: in vivo
[27] = AUC(app) in NMRI mouse plasma infected with Plasmodium berghei ANKA at 3 mg/kg, po qd for 4 consecutive days and measured post last dose; type: ADME, organism-based; conditions: time 4 day
Plasmodium berghei [28] = test: Antiplasmodial activity against Plasmodium berghei ANKA infected in NMRI mouse model assessed as reduction in parasitemia administered orally once a day for 4 consecutive days measured at day 7 post infection by flow cytometry analysis; type: functional; conditions: po, 96 h, time 4 day
[29] = Cmax(app) in NMRI mouse plasma infected with Plasmodium berghei ANKA at 3 mg/kg, po qd for 4 consecutive days and measured post last dose; type: ADME, organism-based; conditions: time 4 day
Plasmodium berghei [30] = test: Antiplasmodial activity against Plasmodium berghei ANKA infected in NMRI mouse assessed as reduction in parasitemia at 3 mg/kg, po qd for 4 consecutive days measured at day 7 post infection by flow cytometry analysis; type: functional; parameters: scale not given: the % may be the effect or the level left; conditions: time 4 day
[31] = Oral bioavailability in Sprague-dawley rat at 15 mg/kg by LC-MS/MS analysis; type: ADME, organism-based; conditions: in vivo
[32] = Half-life in Sprague-dawley rat at 5 mg/kg, iv by LC-MS/MS analysis; type: ADME, organism-based; conditions: in vivo
[33] = Volume of distribution in Sprague-dawley rat at 5 mg/kg, iv by LC-MS/MS analysis; type: ADME, organism-based; conditions: in vivo
[34] = Clearance in Sprague-dawley rat at 5 mg/kg, iv by LC-MS/MS analysis; type: ADME, organism-based; conditions: in vivo

SMILES	IC50 (Plasmodium falciparum [1])	IC50 (Plasmodium falciparum [2])	remaining at 0.5 h, 0.1 µM [4]	Activity (Plasmodium berghei [5])	selectivity ratio [7]	remaining at 0.5 h, 0.1 µM [8]	ED90 (Plasmodium falciparum [9])	remaining at 0.5 h, 0.1 µM [10]	AUC (Plasmodium falciparum [11])	IC50 (Plasmodium falciparum [13])	IC50 [14]	solubility thermodynamic at 2 h [15]	selectivity ratio (hERG (KCNH2))	solubility thermodynamic at 2 h [16]	IC50 (Plasmodium falciparum [19])	MSD (Plasmodium berghei [20])	MSD (Plasmodium berghei [21])	IC50 (Plasmodium berghei [23])	half-life [24]	Cave [25]	further results
C[C@H]1[C@H](OC(=O)CCC(=O)O)O[C@@H]2O[C@@]3(C)CC[C@H]4[C@H](C)CC[C@@H]1[C@@]24OO3 [ARTESUNATE]	4 nM	3 nM	–	–	–	–	–	–	–	–	–	–	–	–	–	–	–	–	–	–	MSD (Plasmodium berghei [3]): 10 days
Nc1ncc(-c2ccc(C(=O)N3CCC(O)CC3)cc2)nc1-c1ccc(C(F)(F)F)cc1	5.4 nM	5 nM	> 90%	99.9%	> 1800	> 90%	0.11 mg/kg	> 90%	60 ng·h/mL	603 nM	> 33000 nM	19 µM (≈ 8.41 µg/mL)	> 1000	119 µM (≈ 52.7 µg/mL)	179 nM	7 days	11 days	4.1 nM	–	–	Vd [6]: 5.1 L/kg; half-life [12]: 8.1 h; half-life [17]: 5.4 h; bioavailability [18]: 25%; clearance [22]: 7.1 mL/min/kg
NC(=O)c1ccc(-c2cnc(N)c(-c3ccc(C(F)(F)F)cc3)n2)cc1	14 nM	13 nM	> 90%	–	> 1800	> 90%	< 0.1 mg/kg	> 90%	< 75 ng·h/mL	754 nM	–	< 5 µM	–	80 µM (≈ 28.7 µg/mL)	237 nM	20 days	>30 days	–	7 h	1800 nM	bioavailability [26]: 25%; AUC at 96 h [27]: 42.3 µM·h; ED90 (Plasmodium berghei [28]): 0.3 mg/kg; Cmax [29]: 4000 nM
Nc1ncc(-c2ccc(C(=O)O)cc2)nc1-c1ccc(C(F)(F)F)cc1	33 nM	32 nM	> 90%	99.9%	> 1800	> 90%	< 0.1 mg/kg	> 90%	200 ng·h/mL	649 nM	> 33000 nM	95 µM (≈ 34.1 µg/mL)	> 1000	< 5 µM	729 nM	14 days	>30 days	51 nM	–	3500 nM	Activity (Plasmodium berghei [30]): 99.9%; bioavailability [31]: 94%; AUC at 96 h [27]: 79.7 µM·h; ED90 (Plasmodium berghei [28]): 0.56 mg/kg; Cmax [29]: 5000 nM
Nc1ncc(-c2ccc(C(=O)N3CC(O)C3)cc2)nc1-c1ccc(C(F)(F)F)cc1	9.2 nM	7 nM	> 90%	99.9%	> 1800	> 90%	0.17 mg/kg	> 90%	22 ng·h/mL	415 nM	–	55 µM (≈ 22.8 µg/mL)	–	110 µM (≈ 45.6 µg/mL)	45 nM	10 days	>30 days	2.7 nM	5.2 h	–	Activity (Plasmodium berghei [30]): 99.7%; half-life [32]: 3 h; Vd [33]: 5.7 L/kg; bioavailability [26]: 20%; clearance [34]: 22 mL/min/kg
Nc1ncc(-c2ccc(C(=O)O)cc2)nc1-c1ccc(C(F)(F)F)nc1	19 nM	26 nM	> 90%	99.8%	> 1800	> 90%	< 0.5 mg/kg	> 90%	< 440 ng·h/mL	168 nM	–	178 µM (≈ 64.1 µg/mL)	–	191 µM (≈ 68.8 µg/mL)	845 nM	7 days	10 days	528 nM	3.9 h	1480 nM	Activity (Plasmodium berghei [30]): 93%; bioavailability [26]: 38%; AUC at 96 h [27]: 30.8 µM·h; Cmax [29]: 2290 nM
Nc1ncc(-c2ccc(C(=O)N3CCNCC3)cc2)nc1-c1ccc(C(F)(F)F)cc1	5.4 nM	5.2 nM	> 90%	>99.9%	> 1800	> 90%	0.25 mg/kg	> 90%	< 65 ng·h/mL	134 nM	10000 nM	158 µM (≈ 67.5 µg/mL)	1900	192 µM (≈ 82.1 µg/mL)	66 nM	10 days	>30 days	0.92 nM	5.3 h	200 nM	Activity (Plasmodium berghei [30]): >99.9%; half-life [32]: 7.8 h; Vd [33]: 5.5 L/kg; bioavailability [26]: 98%; AUC at 96 h [27]: 5.4 µM·h; ED90 (Plasmodium berghei [28]): 1 mg/kg; clearance [34]: 10.3 mL/min/kg; Cmax [29]: 400 nM
Nc1ncc(-c2ccc(C(=O)N3CCC(O)CC3)cc2)nc1-c1ccc(C(F)(F)F)nc1	10 nM	9 nM	> 90%	85%	–	> 90%	–	> 90%	–	–	> 33000 nM	184 µM (≈ 81.6 µg/mL)	> 868	200 µM (≈ 88.7 µg/mL)	–	7 days	7 days	–	–	–	Activity (Plasmodium berghei [30]): 64%
O[C@@H](c1cc(C(F)(F)F)nc2c(C(F)(F)F)cccc12)[C@H]1CCCCN1 [(S,R)-MEFLOQUINE]	–	–	–	–	–	–	–	–	–	–	–	–	–	–	–	–	–	–	–	–	MSD (Plasmodium berghei [3]): 29 days
Nc1ncc(-c2ccc(C(=O)N3CC[C@@H](O)C3)cc2)nc1-c1ccc(C(F)(F)F)cc1	22 nM	20 nM	> 90%	100%	> 1800	> 90%	0.14 mg/kg	> 90%	60 ng·h/mL	323 nM	> 33000 nM	90 µM (≈ 38.6 µg/mL)	> 1000	103 µM (≈ 44.1 µg/mL)	137 nM	8 days	26 days	14 nM	7.2 h	1930 nM	half-life [32]: 5.3 h; Vd [33]: 8.2 L/kg; bioavailability [26]: 71%; AUC at 96 h [27]: 33.2 µM·h; ED90 (Plasmodium berghei [28]): 1.1 mg/kg; clearance [34]: 13.5 mL/min/kg; Cmax [29]: 3290 nM
